Measured values reported in US8507448B2, “Human CD154-binding synthetic peptide and uses thereof” (Fresenius Medical Care Deutschland G.m.b.H., priority 2007, dated 2013).
Positions of bridges follow the written chain, without caps; N, C: chain ends. Residues, ends and D or L forms follow the SMILES beside them. No end group written: not given here.

Tests used:
human platelets = assay: Platelet aggregation assay (aggregometer); format: cell-based
Method: Platelet aggregation was measured with an aggregometer, as the increase in light transmission compared to the control. Priming of human platelets with the anti-human CD154 antibody in combination with rhsCD154 increases platelet aggregation upon stimulation with ADP 0.5 μM.
Finally, one of the major advantages of peptide 4.10 is its lack of reactivity towards human platelets. It is know that in the past, a number of clinical trials carried out to test promising anti-CD154 monoclonal antibodies were suddenly discontinued due to dramatic prothrombotic side effects (Kelsoe G. et al, J. Clin. Invest. 2003). The hypothesis is that the anti-CD154 antibodies had triggered a cross-reaction on the surface of human platelets expressing the receptor for the Fc immunoglobulin fraction (FcR) and, after activation, the CD154 molecule. Thus, the inventors tested the effect of peptide 4.10 on platelets, by a platelet aggregation assay. Such experiments were carried out by the use of a thermostatic aggregometer, equipped with a magnetic stirrer and a real time optical density meter. Platelet aggregation was evaluated as the change in optical density versus the reference sample (blank). The experiments were carried out on platelets extracted from peripheral whole blood of healthy donors collected in tubes containing 5 U/ml heparin. In particular, the platelet enriched plasma (PRP), was obtained by whole blood centrifugation at 900 rpm for 20 minutes, while the platelet poor plasma (PPP), used as the reference sample, was obtained collecting the supernatant after another centrifugation at 3000 rpm for 10 minutes. […] Similar results were obtained inducing platelet aggregation with 0.3 U/ml thrombin.

[1] = tested on: control J558 cells (CD154-negative); assay: Binding to control CD154-negative J558 cells by flow cytometry; set-up: species or system murine; conditions: -His6 peptides
[2] = target: T1, human CD154 expressed on the surface of J558L cells (Homo sapiens, UniProt P29965); assay: Binding of -His6-tagged peptides to J558L CD154+ cells by flow cytometry; conditions: -His6 peptides 60 μM, 30 minutes at room temperature
T1 construct: expressed in transfected cells; host or cells: J558L murine myeloma cell line transfected with human CD154
T1 sequence (P29965 1-261): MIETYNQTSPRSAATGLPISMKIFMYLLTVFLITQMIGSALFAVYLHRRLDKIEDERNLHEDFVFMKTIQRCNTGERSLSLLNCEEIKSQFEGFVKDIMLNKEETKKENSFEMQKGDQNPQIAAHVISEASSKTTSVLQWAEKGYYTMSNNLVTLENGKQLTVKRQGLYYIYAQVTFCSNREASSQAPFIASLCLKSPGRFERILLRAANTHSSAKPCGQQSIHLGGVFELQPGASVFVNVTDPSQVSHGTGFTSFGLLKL
Method: FIG. 2 represents the binding of the seven peptides obtained from the human CD154-binding clones and tagged with a 6 histidines tail (-His6) to the J558L CD154^+ cells. […] The cells were incubated with each of the -His6-tagged peptides and then with a phycoerythrin-conjugated secondary antibody specific for the -His6 tail. The dotted histogram is the isotopic control, whilst the black line is the binding intensity of the CD154-specific peptides [4.2=4.3=CPSGHTKAC (SEQ ID NO: 1), 4.4=CGTHSSRIC (SEQ ID NO: 2), 4.6=CLGTQNKEC (SEQ ID NO: 3), 4.7=4.12=CTPGKPHSC (SEQ ID NO: 4), 4.8=CKAASANIC (SEQ ID NO: 5), 4.10=CLPTRHMAC (SEQ ID NO: 6) and 4.11=CLSAVHNMC (SEQ ID NO: 7)]. For each experimental condition, 10,000 events were analyzed and the values are the mean and standard deviation of 3 different experiments.
(§1) The peptides were synthesized and conjugated with biotin (-bio) or with a 6-histidine tail (-his6) so as to enable in vitro and in vivo localization. […] Furthermore, a competition assay between the peptides and an anti-human CD154 fluorescein-conjugated antibody (Serotec) specifically recognizing the active site of CD154 was carried out. The J558L cells were incubated with the his6-peptides for 30 minutes at room temperature and then with anti-human CD154 fluorescein-conjugated antibody for another 30 minutes at room temperature. […] In order to identify the amino acid residues of the amino acid sequence of peptide 4.10 which are essential to the binding to CD154, three different peptides were synthesized, each one carrying a point mutation, which amino acid sequences differ from that of peptide 4.10 by replacement of the amino acid residues at positions 4, 5, 6, respectively, with one alanine residue.
The mutated peptides were not capable of recognizing human CD154 expressed at the surface of J558L cells (data not shown).
Similar results were obtained with the four modified peptides 4.101, 4.102, 4.103 e 4.104 having the amino acid sequences illustrated in table II.

HUVEC = assay: In vitro angiogenesis: cell cord formation of HUVECs on Matrigel; format: cell-based, human; conditions: pre-incubated with rhsCD154 100 ng/ml for 15 minutes at 37° C.; 4 hours
From the text: FIGS. 7B-F show representative images of cell cord formation ability on Matrigel under the various experimental conditions mentioned above (B=unstimulated control; C=rhsCD154; D=rhsCD154+ 4.10 peptide; E=rhsCD154+ 4.10-ala peptide; F=rhsCD154+ blocking anti-CD154 antibody). Peptide 4.10 of the invention (SEQ ID NO: 6), contrary to control peptide 4.10-ala (SEQ ID NO: 8), inhibits the rhsCD154-induced ability of the endothelial cells of forming cell cords.
Furthermore, in order to evaluate the inhibitory effect, rhsCD154 (100 ng/ml) was pre-incubated for 15 minutes at 37° C. with peptide 4.10 (SEQ. ID NO: 6), or with control peptide 4.10-ala (SEQ. ID NO: 8), or with a blocking anti-human CD154 antibody. The flasks were then observed at 10× magnification for a period of 4 hours under a phase contrast inverted microscope equipped with a thermostatic chamber (at about 37° C.). The cells were photographed with a camera connected to the microscope, over the whole length of time of 4 hours at regular intervals of 15 minutes each. The migratory speed of each of the cells was calculated based on the position of the nucleus of each single cell in each single frame, using an image analysis software and, as a result, the average cell migratory speed (1 standard deviation) was calculated for each experimental condition. […] As a further confirmation of the ability of peptide 4.10 to prevent human endothelial CD40 stimulation by rhsCD154 (100 ng/ml), HUVECs (3.5×10^4) were subjected to an in vitro angiogenesis assay. HUVECs were plated on a tumor matrix (Matrigel, BD) capable of promoting the formation of super cellular organization, in a basal RPMI medium supplemented with 5% serum. Upon incubation at 37° C. under 5% CO2 for 4 hours, the cells were observed under a contrast phase inverted microscope.

[3] = tested on: CD40 stimulation of peripheral B cells by rhsCD154; assay: rhsCD154-induced B cell activation (CD80 and CD86 membrane expression); format: cell-based, human
Method: The histograms of 4A show the effect of the anti-CD154 peptides and the control peptide 4.10-ala, on the activation B cells induced by stimulation with a soluble recombinant human CD154 molecule (rhsCD154). B cells were stimulated for 48 hours with rhsCD154 in the absence and in the presence of a blocking anti-human CD154 antibody or one of the seven selected peptides. Peripheral B cell activation was evaluated by flow cytometry, as the membrane expression of the co-stimulatory molecules CD80 and CD86. […] On the contrary, the activation is prevented when rhsCD154 is used in combination with a blocking anti-human CD154 antibody or with peptide 4.10 (SEQ ID NO: 6).
B cells are known to constitutively express the CD40 molecule on the cells membrane (van Kooten C. et al, J. Leukoc. Biol. 2000). Stimulation of CD40 by CD154-expressing activated T cells, results in B cells activation, proliferation and isotype switching. The inventors employed B cells isolated from whole peripheral blood of healthy donors by gradient-Ficoll centrifugation and immunomagnetical separation (MACS systems—Milteniy). The quiescent B cells thereby obtained, were then stimulated with a soluble form of human recombinant CD154 (rhsCD154) to induce activation and expression of the co-stimulatory molecules CD80 (B7-1) and CD86 (B7-2) on the cell membrane. A drastic increase in membrane expression of CD80 and CD86 on the cell surface of peripheral B cells, after stimulation for 48 hours with rhsCD154 (100 ng/ml) was observed. […] In contrast, pre-incubation for 15 minutes at 37° C. of rhsCD154 (100 ng/ml) with peptide 4.10 (SEQ. ID NO: 6), prior to lymphocyte stimulation, blocked B cells stimulation and the related expression of CD80 and CD86. […] The results are the mean±standard deviation of five different experiments. Similar results were also obtained with B cells isolated from human spleen fragments. […] These experiments were carried out on […] naive B cells, obtained from peripheral blood by negative selection, by depletion of mature lymphocytes from the B cell pool by immunomagnetic separation (MACS Systems Milteniy).

[4] = target: T2, active site of human CD154 (Homo sapiens, UniProt P29965); assay: Competition with anti-human CD154 fluorescein-conjugated antibody on J558L cells; format: binding; conditions: -His6 peptides 30 minutes at room temperature, then antibody
T2 construct: expressed in transfected cells; host or cells: J558L murine myeloma cell line transfected with human CD154
T2 sequence (P29965 1-261): T1 sequence (P29965 1-261)
Method: The murine myeloma cells transfected with human CD154, J558L, were incubated with each of the seven anti-CD154 peptides tagged with a 6 histidines tail (-His6), and then with the anti-CD154 fluorescein-conjugated antibody. The ability of the peptides to compete with the anti-CD154 antibody for the binding to the CD154 molecule expressed on the surface of the J558L cells was evaluated by flow cytometry, as the reduction in the fluorescence intensity compared to the positive control represented by cells incubated with the anti-human CD154 fluorescein-conjugated antibody alone. […] The amino acid sequence of the control peptide differs from that of peptide 4.10 in that an arginine residue is replaced with an alanine residue at amino acid position 5.
as §1

[5] = peptide 250 μM with rhsCD154 100 ng/ml

| Molecule | binding to control J558 cells [1] | binding to J558L CD154+ cells [2] | further results |
| --- | --- | --- | --- |
| CSCC[C@@H]1NC(=O)[C@H](Cc2c[nH]cn2)NC(=O)[C@H](CCCNC(=N)N)NC(=O)[C@H]([C@@H](C)O)NC(=O)[C@@H]2CCCN2C(=O)[C@H](CC(C)C)NC(=O)[C@@H](N)CSSC[C@@H](C(=O)O)NC(=O)[C@H](C)NC1=O [peptide 4.10, CLPTRHMAC] (H-CLPTRHMAC-OH; disulfide 1-9) | – | – | platelet aggregation induced by ADP 0.5 μM after priming (human platelets; priming 10 minutes at 37° C., peptide 60 μM with CD154): did not enhance platelet aggregation; activation of human platelet aggregation with thrombin at a subliminal dose (human platelets; thrombin 0.3 U/ml): inactive |
| CGTHSSRIC (disulfide 1-9 (inferred)) [4.4] | not capable of binding | capable of specifically binding | – |
| CIPTRHMAC (binding protein) [4.101, modified form of peptide 4.10] | – | None of these peptides proved to be capable of binding | – |
| CIPTRHMVC (binding protein) [4.103, modified form of peptide 4.10] | – | None of these peptides proved to be capable of binding | – |
| CKAASANIC (disulfide 1-9 (inferred)) [4.8] | not capable of binding | capable of specifically binding | – |
| CLGTQNKEC (disulfide 1-9 (inferred)) [peptide 4.6] | not capable of binding | capable of specifically binding | effect on rhsCD154-induced formation of vessel-like cell cords on Matrigel (HUVEC): not capable of significantly reducing the stimulation of endothelial CD40; expression of CD80 compared to basal levels [3, 5]: 117%; expression of CD86 compared to basal levels [3, 5]: 122%; competition with anti-human CD154 fluorescein-conjugated antibody specific for the active site of CD154 [4]: do not specifically bind to the active site |
| CLPSRHMAC (binding protein) [4.102, modified form of peptide 4.10] | – | None of these peptides proved to be capable of binding | – |
| CLPTRWMAC (binding protein) [4.104, modified form of peptide 4.10] | – | None of these peptides proved to be capable of binding | – |
| CLSAVHNMC (disulfide 1-9 (inferred)) [peptide 4.11] | not capable of binding | capable of specifically binding | effect on rhsCD154-induced formation of vessel-like cell cords on Matrigel (HUVEC): not capable of significantly reducing the stimulation of endothelial CD40; inhibition of rhsCD154-induced B cell activation (CD80 and CD86 expression) ([3]; 250 μM): not stably reproducible; competition with anti-human CD154 fluorescein-conjugated antibody specific for the active site of CD154 [4]: do not specifically bind to the active site |
| CPSGHTKAC (disulfide 1-9 (inferred)) [4.2=4.3] | not capable of binding | capable of specifically binding | – |
| CTPGKPHSC (disulfide 1-9 (inferred)) [4.7=4.12] | not capable of binding | capable of specifically binding | – |
